Test results taken from ChEMBL document CHEMBL4422618, “Translational impact of novel widely pharmacological characterized mofezolac-derived COX-1 inhibitors combined with bortezomib on human multiple myeloma cell lines viability” (Eur J Med Chem, 2019).
Active and inactive are the calls of the source. The rule behind the calls is not given here.

Assays:
[1] = test system: Platelet; assay: Antiplatelet activity in human platelet rich plasma assessed as inhibition of arachidonic acid-induced platelet aggregation preincubated for 2 mins followed by arachidonic acid addition by turbidimetric method; assay type: functional, cell-based
[2] = test system: Plasma; assay: Anticoagulant activity in human platelet poor plasma assessed as activated partial thromboplastin time at 100 uM incubated for 15 mins at room temperature and subsequent incubation for 2 mins at 37 degreeC followed by cephalin addition and measured after 2 mins for every secs in presence of CaCl2; assay type: functional
[3] = test system: Plasma; assay: Anticoagulant activity in human platelet poor plasma assessed as prothrombin time at 100 uM incubated for 15 mins at room temperature and subsequent incubation for 2 mins at 37 degreeC followed by PBS addition and measured after 3 mins for every secs in presence of calcium thromboplastin; assay type: functional
[4] = Hemolytic activity in erythrocytes (unknown origin) at 100 uM after 3 hrs by spectrophotometric analysis; assay type: ADME, cell-based, Erythrocyte; conditions: read-out: Activity
[5] = Mutagenicity in Salmonella typhimurium TA97 at 500 uM by Ames test; assay type: toxicity; conditions: salmonella enterica subsp. enterica serovar typhimurium
[6] = Mutagenicity in Salmonella typhimurium TA98 at 500 uM by Ames test; assay type: toxicity; conditions: salmonella enterica subsp. enterica serovar typhimurium
[7] = Mutagenicity in Salmonella typhimurium TA100 at 500 uM by Ames test; assay type: toxicity; conditions: salmonella enterica subsp. enterica serovar typhimurium
[8] = Mutagenicity in Salmonella typhimurium TA102 at 500 uM by Ames test; assay type: toxicity; conditions: salmonella enterica subsp. enterica serovar typhimurium
[9] = Genotoxicity in Escherichia coli PQ35 at 500 uM after overnight incubation by SOS chromotest; assay type: toxicity
[10] = Genotoxicity in Escherichia coli PQ37 at 500 uM after overnight incubation by SOS chromotest; assay type: toxicity
[11] = test system: NCI-H929; assay: Cytotoxicity against human NCI-H929 cells assessed as reduction in cell viability at […] after 48 hrs by CCK8 assay; assay type: functional, cell-based
[12] = test system: RPMI-8226; assay: Cytotoxicity against human RPMI8226 cells assessed as reduction in cell viability at 42 nM after 48 hrs by CCK8 assay relative to control; assay type: functional
[13] = test system: NCI-H929; assay: Potentiation of bortezomib-induced cytotoxicity against human NCI-H929 cells assessed as reduction in cell viability at […] after 48 hrs in presence of bortezomib by CCK8 assay; assay type: functional, cell-based
[14] = test system: RPMI-8226; assay: Potentiation of bortezomib-induced cytotoxicity against human RPMI8226 cells assessed as reduction in cell viability at […] after 48 hrs in presence of bortezomib by CCK8 assay; assay type: functional
[15] = test system: NCI-H929; assay: Cell cycle arrest in human NCI-H929 cells assessed as accumulation at G0/G1 phase at […] in presence of bortezomib after 48 hrs by propidium iodide/RNase staining based flow cytometric method relative to bortezomib alone; assay type: functional
[16] = test system: NCI-H929; assay: Cell cycle arrest in human NCI-H929 cells assessed as accumulation at S phase at […] in presence of bortezomib after 48 hrs by propidium iodide/RNase staining based flow cytometric method relative to bortezomib alone; assay type: functional
[17] = test system: RPMI-8226; assay: Cell cycle arrest in human RPMI8226 cells assessed as accumulation at G0/G1 phase at […] after 48 hrs by propidium iodide/RNase staining based flow cytometric method; assay type: functional
[18] = test system: RPMI-8226; assay: Cell cycle arrest in human RPMI8226 cells assessed as accumulation at S phase at […] after 48 hrs by propidium iodide/RNase staining based flow cytometric method; assay type: functional
[19] = test system: NCI-H929; assay: Induction of apoptosis in human NCI-H929 cells assessed as early apoptotic cells at […] after 48 hrs by Annexin-V/propidium iodide staining based flow cytometric method (reference value: 17.1%); assay type: functional
[20] = test system: NCI-H929; assay: Induction of apoptosis in human NCI-H929 cells assessed as late apoptotic cells at […] after 48 hrs by Annexin-V/propidium iodide staining based flow cytometric method (reference value: 0.23%); assay type: functional
[21] = test system: NCI-H929; assay: Induction of apoptosis in human NCI-H929 cells assessed as necrotic cells at […] after 48 hrs by Annexin-V/propidium iodide staining based flow cytometric method (reference value: 0.0034%); assay type: functional
[22] = test system: NCI-H929; assay: Induction of apoptosis in human NCI-H929 cells assessed as viable cells at […] after 48 hrs by Annexin-V/propidium iodide staining based flow cytometric method (reference value: 82.6%); assay type: functional; conditions: NCI-H929, 48 h, read-out: Activity
[23] = test system: NCI-H929; assay: Induction of apoptosis in human NCI-H929 cells assessed as early apoptotic cells at […] after 48 hrs in presence of bortezomib by Annexin-V/propidium iodide staining based flow cytometric method (reference value: 17.1%); assay type: functional
[24] = test system: NCI-H929; assay: Induction of apoptosis in human NCI-H929 cells assessed as late apoptotic cells at […] after 48 hrs in presence of bortezomib by Annexin-V/propidium iodide staining based flow cytometric method (reference value: 0.23%); assay type: functional
[25] = test system: NCI-H929; assay: Induction of apoptosis in human NCI-H929 cells assessed as necrotic cells at […] after 48 hrs in presence of bortezomib by Annexin-V/propidium iodide staining based flow cytometric method (reference value: 0.0034%); assay type: functional
[26] = test system: NCI-H929; assay: Induction of apoptosis in human NCI-H929 cells assessed as viable cells at […] after 48 hrs in presence of bortezomib by Annexin-V/propidium iodide staining based flow cytometric method (reference value: 82.6%); assay type: functional; conditions: NCI-H929, 48 h, read-out: Activity
[27] = test system: RPMI-8226; assay: Induction of apoptosis in human RPMI8226 cells assessed as early apoptotic cells at […] after 48 hrs in presence of bortezomib by Annexin-V/propidium iodide staining based flow cytometric method (reference value: 1.05%); assay type: functional
[28] = test system: RPMI-8226; assay: Induction of apoptosis in human RPMI8226 cells assessed as late apoptotic cells at […] after 48 hrs in presence of bortezomib by Annexin-V/propidium iodide staining based flow cytometric method (reference value: 0.21%); assay type: functional
[29] = test system: RPMI-8226; assay: Induction of apoptosis in human RPMI8226 cells assessed as necrotic cells at […] after 48 hrs in presence of bortezomib by Annexin-V/propidium iodide staining based flow cytometric method (reference value: 0.090%); assay type: functional
[30] = test system: RPMI-8226; assay: Induction of apoptosis in human RPMI8226 cells assessed as viable cells at […] after 48 hrs in presence of bortezomib by Annexin-V/propidium iodide staining based flow cytometric method (reference value: 98.7%); assay type: functional; conditions: RPMI-8226, 48 h, read-out: Activity
[31] = test system: RPMI-8226; assay: Cell cycle arrest in human RPMI8226 cells assessed as accumulation at G0/G1 phase at […] in presence of bortezomib after 48 hrs by propidium iodide/RNase staining based flow cytometric method relative to bortezomib; assay type: functional
[32] = test system: RPMI-8226; assay: Cell cycle arrest in human RPMI8226 cells assessed as accumulation at S phase at […] in presence of bortezomib after 48 hrs by propidium iodide/RNase staining based flow cytometric method relative to bortezomib; assay type: functional
[33] = test system: RPMI-8226; assay: Cell cycle arrest in human RPMI8226 cells assessed as reduction in accumulation at G2/M phase at […] in presence of bortezomib after 48 hrs by propidium iodide/RNase staining based flow cytometric method relative to bortezomib; assay type: functional

In the case of COc1ccc(-c2noc(CC(=O)O)c2-c2ccc(OC)cc2)cc1 [MOFEZOLAC], the IC50 [1] is reported as 450 nM, the APTT [2] is reported as 50.8 s and the PT [3] is reported as 14.2 s. For the same molecule, the hemolysis at 3 h, 100 µM [4] was 0%, the Activity [5] was “Non-Toxic” and the Activity [6] was “Non-Toxic”. The Activity [7] was “Non-Toxic”, the Activity [8] was “Non-Toxic” and the Activity [9] was “Non-Toxic”. The Activity [10] was “Non-Toxic”, the Activity [11] was “inactive” and the Activity [12] was 1%. The Activity [13] was “inactive”, the Activity [14] was 56% and the Activity [15] was 15%. For the same molecule, the Activity [16] was 15%, the Activity [17] was “inactive” and the Activity [18] was “inactive”. For the same molecule, the Activity [19] was 18.7%, the Activity [20] was 0.13% and the Activity [21] was 0%. The viability at […] [22] was 81.1%, the Activity [23] was 64.3% and the Activity [24] was 0.24%. For the same molecule, the Activity [25] was 0%, the viability at […] [26] was 35.4% and the Activity [27] was 7.86%. The Activity [28] was 0.31%, the Activity [29] was 0.006% and the viability at […] [30] was 91.8%. The Activity [31] was “Active”, the Activity [32] was “Active” and the Activity [33] was “Active”.
